Values of other authors, collected in US20070142447A1, “Veterinary composition comprising an arylpyrazole and a nitroenamine with enhanced antiparasitic activity” (Intervet International B.V., priority 2004, published 2007).
Read-outs that look alike come from different tables or passages of the source.

Legend:
fleas = conditions: after 72 hours
[1] = dogs
[2] = cats

SMILES: CCN(Cc1ccc(Cl)nc1)/C(=C/[N+](=O)[O-])NC [nitenpyram, (E)-N-(6-chloro-pyridin-3-ylmethyl)-N-ethyl-N-methyl-2-methyl-2-nitrovinylidenediamine]
- lethality of nitenpyram levels in host blood to fleas (fleas): not lethal to fleas
- half-life in the blood [1]: 2.8 h
- mean residence time [1]: 4.1 h
- half-life in the blood [2]: 7.7 h
- mean residence time [2]: 10.2 h
